For this assay, the system named is spontaneously developed mammary gland tumors (adenocarcinoma and adenoma). In words: Therapeutic effect on tumor-bearing rats; light and electron microscopy of removed tumor tissues. The class given is in vivo, Sprague-Dawley rats. The following applies: for apoptosis of smooth muscle cells in the tumor site: electron micrographs FIGS. 12 to 15; for degeneration of axons of peripheral nerve cells in the tumor site / degeneration of myelin sheaths of peripheral nerve cells in the tumor site: electron micrographs FIGS. 16 to 19; for stage of apoptosis of endothelial cells (irregular condensation and fragmentation of nuclei): staging per Ihara et al. 1998; for apoptosis in the tumor cells / inhibitory effect on the development and the growth of the tumor cells: tumor-bearing rats, oral daily (montelukast sodium 0.16, zafirlukast 1.33, pranlukast hydrate 7.5, zileuton 34.3 mg/kg), vs untreated. From the text:
Sprague-Dawley rats which had spontaneously developed a tumor during breeding (hereinafter referred to as tumor-bearing rats) were purchased from Charles River Japan, Inc., and used for experiments. Tumors observed were all mammary gland tumors (adenocarcinoma and adenoma). All of these were spontaneous tumors, and the rats were cancer-bearing animals having various conditions of tumorigenesis including carcinogenic factors in mammals including human.
Under ether anesthetization, tumor tissues were removed from tumor-bearing rats. The removed tumors were fixed, and thereafter samples for light microscopy (hematoxylin-eosin staining) and samples for electron microscopy (uranium-lead double staining) were prepared and observed.
To tumor-bearing rats, a leukotriene inhibitor containing montelukast sodium as an active ingredient (leukotriene receptor antagonist; trade name “Singulair Tablets”; manufactured by MSD K. K.) was orally administered for up to 7 days at a daily dose of 0.16 mg/kg body weight in terms of montelukast sodium. On Day 3 and Day 7, tumor tissues were removed under ether anesthetization. In the same manner as in Comparative Example 1, the removed tumors were fixed, and thereafter samples for light microscopy (hematoxylin-eosin staining) and samples for electron microscopy (uranium-lead double staining) were prepared and observed.
To tumor-bearing rats, a leukotriene inhibitor containing zafirlukast as an active ingredient (leukotriene receptor antagonist; trade name “Accolate”; manufactured by AstraZeneca K. K.) was orally administered for up to 7 days at a daily dose of 1.33 mg/kg body weight in terms of zafirlukast. On Day 3 and Day 7, tumor tissues were removed under ether anesthetization. In the same manner as in Comparative Example 1, the removed tumors were fixed, and thereafter samples for light microscopy (hematoxylin-eosin staining) and samples for electron microscopy (uranium-lead double staining) were prepared and observed.
To tumor-bearing rats, a leukotriene inhibitor containing pranlukast hydrate as an active ingredient (leukotriene receptor antagonist; trade name “Onon”; manufactured by Ono Pharmaceutical Co., Ltd.) was orally administered for up to 7 days at a daily dose of 7.5 mg/kg body weight in terms of pranlukast hydrate. On Day 3 and Day 7, tumor tissues were removed under ether anesthetization. In the same manner as in Comparative Example 1, the removed tumors were fixed, and thereafter samples for light microscopy (hematoxylin-eosin staining) and samples for electron microscopy (uranium-lead double staining) were prepared and observed.
To tumor-bearing rats, a leukotriene inhibitor containing zileuton as an active ingredient (leukotriene biosynthesis inhibitor; trade name “ZYFLO”; manufactured by Abbott Laboratories) was orally administered for up to 7 days at a daily dose of 34.3 mg/kg body weight in terms of zileuton. On Day 3 and Day 7, tumor tissues were removed under ether anesthetization. In the same manner as in Comparative Example 1, the removed tumors were fixed, and thereafter samples for light microscopy (hematoxylin-eosin staining) and samples for electron microscopy (uranium-lead double staining) were prepared and observed.

Setting [1] is: oral, dosing period 3 days, electron micrographs.

The text below walks through data of patent US20190070163A1, “ANTITUMOR AGENT” (TOCHIGI INSTITUTE OF CLINICAL PATHOLOGY, priority 2013, published 2019).

For `COc1cc(C(=O)NS(=O)(=O)c2ccccc2C)ccc1Cc1cn(C)c2ccc(NC(=O)OC3CCCC3)cc12` [zafirlukast], the “apoptosis in the tumor cells” value was “apoptosis was already induced on as early as Day 3”; the “inhibitory effect on the development and the growth of the tumor cells” value was “remarkable inhibitory effect”. Also, under setting [1], the “apoptosis of fibroblasts in tumor tissue” value is listed as “apoptosis of fibroblast”; the “stage of apoptosis of endothelial cells (irregular condensation and fragmentation of nuclei)” value is given as “Stage II to III”. In addition, for the setting “oral, dosing period 3 days”, the “apoptosis of smooth muscle cells in the tumor site” value was “apoptosis of a smooth muscle cell”; the “degeneration of axons of peripheral nerve cells in the tumor site” value is “vacuolation and degeneration of an axon”; the “degeneration of myelin sheaths of peripheral nerve cells in the tumor site” value is “degeneration of a myelin sheath”.
`CC(c1cc2ccccc2s1)N(O)C(N)=O` (centres unmarked) [zileuton]: the “apoptosis in the tumor cells” value is reported as “apoptosis was already induced on as early as Day 3”; the “inhibitory effect on the development and the growth of the tumor cells” value is given as “remarkable inhibitory effect”. For the same compound, where the note is “oral, dosing period 3 days”, the “effect to inhibit stromal hyperplasia” value is “an effect to inhibit stromal hyperplasia was also seen”; the “apoptosis of smooth muscle cells in the tumor site” value was “apoptosis of a smooth muscle cell”; the “degeneration of axons of peripheral nerve cells in the tumor site” value is “vacuolation and degeneration of an axon”; the “degeneration of myelin sheaths of peripheral nerve cells in the tumor site” value was “degeneration of a myelin sheath”. In addition, under setting [1], the “stage of apoptosis of endothelial cells (irregular condensation and fragmentation of nuclei)” value is recorded as “Stage II to III”.
